The test system of experiment [1] is DU145 (Prostate Cancer) cells. Briefly: Cellular growth assay (MTT), DU145. The format is cell-based. The note with it: Homo sapiens, DU-145, 40 hr incubation, read-out: DU145 (inhibition of 50% of cellular growth). The method, then: (§1) K562 (Chronic Myeloid Leukemia), PC3 (Prostate Cancer), and DU145 (Prostate Cancer) were obtained from the American Type Culture Collection (ATCC). K562 was grown in RPMI, with 10% FBS with Glutamx added. DU145 cells were cultured in DMED, with 10% FBS and Glutamx and MEM non-essential amino acids added. PC3 cells were grown in F12K medium, with 10% FBS and Glutamx and MEM non-essential amino acids added. All cells were grown at 37° C. in 5% CO2.

The test system of experiment [2] is PC3 (Prostate Cancer) cells. Description: Cellular growth assay (MTT), PC3. The format is cell-based. The note with it: Homo sapiens, PC-3, 40 hr incubation, read-out: PC3 (inhibition of 50% of cellular growth). How it is done:
as §1

Experiment [3] relates to K562 (Chronic Myeloid Leukemia) cells. Briefly: Cellular growth assay (MTT), K562. Type of experiment: cell-based. The settings on record: Homo sapiens, 40 hr incubation, read-out: K562 (inhibition of 50% of cellular growth). How it is done:
as §1

Experiment [4] deals with TelJak2 (Homo sapiens, UniProt O60674). Briefly: Cellular growth assay (MTT), BaF3 TEL/JAK2 cells. Type of experiment: cell-based. The settings on record: 40 hr incubation, read-out: TelJak2 (inhibition of 50% of cellular growth).
Experiment [5] concerns the target TelJak3 (Homo sapiens, UniProt P52333). Briefly: Cellular growth assay (MTT), BaF3 TEL/JAK3 cells. Type of experiment: cell-based. The settings on record: 40 hr incubation, read-out: TelJak3 (inhibition of 50% of cellular growth).
The test system of experiment [6] is Tubulin. Briefly: Tubulin assay (turbidometric microtubule assembly). Type of experiment: biochemical. The settings on record: at 50 μM, absorbance at 340 nm, 37° C. How it is done: Turbidometric assays of microtubule assembly were performed by incubating microtubule protein in cuvettes at 37° C. in a thermostatically controlled spectrophotometer measuring the change in absorbance at 340 nm over time. The microtubule protein was incubated with the each test compound at 0° C. and polymerisation was initiated by addition of 1 mM GTP, prior to heating to 37° C.

Sequence of TelJak2 (O60674 with tags, fused parts or gaps): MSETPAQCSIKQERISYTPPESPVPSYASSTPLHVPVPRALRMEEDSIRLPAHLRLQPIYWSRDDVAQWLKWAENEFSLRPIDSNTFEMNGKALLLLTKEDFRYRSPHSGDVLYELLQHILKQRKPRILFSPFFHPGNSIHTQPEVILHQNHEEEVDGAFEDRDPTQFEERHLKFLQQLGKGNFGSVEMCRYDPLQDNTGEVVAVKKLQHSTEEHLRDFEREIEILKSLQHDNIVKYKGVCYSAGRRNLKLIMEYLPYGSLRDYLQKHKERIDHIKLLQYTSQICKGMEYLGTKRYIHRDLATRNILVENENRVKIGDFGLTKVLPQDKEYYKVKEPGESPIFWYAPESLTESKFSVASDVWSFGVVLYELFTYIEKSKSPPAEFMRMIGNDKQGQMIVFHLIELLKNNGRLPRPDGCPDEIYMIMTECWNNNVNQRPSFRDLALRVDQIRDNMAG
Sequence of TelJak3 (P52333 with tags, fused parts or gaps): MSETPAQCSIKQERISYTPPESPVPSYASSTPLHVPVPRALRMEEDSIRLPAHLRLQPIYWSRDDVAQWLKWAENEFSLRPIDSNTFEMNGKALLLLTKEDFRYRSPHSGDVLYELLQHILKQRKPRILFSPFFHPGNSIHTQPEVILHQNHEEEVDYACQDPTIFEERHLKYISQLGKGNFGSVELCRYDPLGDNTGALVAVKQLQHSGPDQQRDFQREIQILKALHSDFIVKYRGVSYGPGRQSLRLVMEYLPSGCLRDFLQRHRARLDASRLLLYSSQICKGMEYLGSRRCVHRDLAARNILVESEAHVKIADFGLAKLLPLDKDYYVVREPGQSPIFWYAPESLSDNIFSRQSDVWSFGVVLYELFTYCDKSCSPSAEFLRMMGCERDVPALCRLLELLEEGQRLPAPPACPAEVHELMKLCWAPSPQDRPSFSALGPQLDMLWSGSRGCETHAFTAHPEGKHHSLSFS

As for `CCCC(Nc1cncc(-c2ccc(O)c(OC)c2)n1)c1ccccc1` (stereo not drawn), the IC50 in experiment [1], in experiment [2], in experiment [3], in experiment [4] and in experiment [5] was at most 20 µM in each case. In addition, the “Tubulin (inhibition of tubulin polymerisation)” value in experiment [6] was “+ (inhibited tubulin polymerisation by greater than 50% at 50 μM)”.
Consider `CCCC(Nc1cncc(-c2ccc(O)c(OC)c2)n1)c1ccc(F)cc1` (stereo not drawn), for which the IC50 in experiment [1] was at most 20 µM; in experiment [2], over 20 µM; in experiment [3] it was at most 20 µM; in experiment [4], at most 20 µM; in experiment [5] it was at most 20 µM. Moreover, the “Tubulin (inhibition of tubulin polymerisation)” value in experiment [6] is on record as “+ (inhibited tubulin polymerisation by greater than 50% at 50 μM)”.
Regarding `CCCC(Nc1cncc(-c2ccc(O)c(OC)c2)n1)c1cccc(Cl)c1` (stereo not drawn), the IC50 in experiment [1], in experiment [2], in experiment [3], in experiment [4] and in experiment [5] was at most 20 µM each time. For the same compound, the “Tubulin (inhibition of tubulin polymerisation)” value in experiment [6] is reported as “+ (inhibited tubulin polymerisation by greater than 50% at 50 μM)”.
Consider `CCCC(Nc1cncc(-c2ccc(O)c(OC)c2)n1)c1cccc(F)c1` (stereo not drawn), for which the IC50 in experiment [1], in experiment [2], in experiment [3], in experiment [4] and in experiment [5] was at most 20 µM throughout. For the same compound, the “Tubulin (inhibition of tubulin polymerisation)” value in experiment [6] was “+ (inhibited tubulin polymerisation by greater than 50% at 50 μM)”.
On to `CCCC(Nc1cncc(-c2ccc(O)c(OC)c2)n1)c1cccc(O)c1` (stereo not drawn), for which the IC50 in experiment [1] was over 20 µM; in experiment [2], over 20 µM; in experiment [3], at most 20 µM; in experiment [4], at most 20 µM; in experiment [5], at most 20 µM. Besides, the “Tubulin (inhibition of tubulin polymerisation)” value in experiment [6] is “+ (inhibited tubulin polymerisation by greater than 50% at 50 μM)”.
With `CCCC(Nc1cncc(-c2ccc(O)c(OC)c2)n1)c1cccc(C)c1` (stereo not drawn), the IC50 in experiment [1], in experiment [2], in experiment [3], in experiment [4] and in experiment [5] was at most 20 µM each time. Further, in experiment [6], the “Tubulin (inhibition of tubulin polymerisation)” value is recorded as “+ (inhibited tubulin polymerisation by greater than 50% at 50 μM)”.
As for `CCCC(Nc1cncc(-c2ccc(O)c(OC)c2)n1)c1cc(OC)cc(OC)c1` (stereo not drawn), the IC50 in experiment [1], in experiment [2], in experiment [3], in experiment [4] and in experiment [5] was at most 20 µM in each case. Besides, in experiment [6], the “Tubulin (inhibition of tubulin polymerisation)” value is given as “+ (inhibited tubulin polymerisation by greater than 50% at 50 μM)”.
`CCCC(Nc1cncc(-c2ccc(OC)c(OC)c2)n1)c1ccccc1` (stereo not drawn): the IC50 in experiment [1], in experiment [2], in experiment [3], in experiment [4] and in experiment [5] was at most 20 µM throughout. The “Tubulin (inhibition of tubulin polymerisation)” value in experiment [6] is listed as “+ (inhibited tubulin polymerisation by greater than 50% at 50 μM)”.
`CCCC(Nc1cncc(-c2ccc3c(c2)OCO3)n1)c1ccccc1` (stereo not drawn): the IC50 in experiment [1], in experiment [2], in experiment [3], in experiment [4] and in experiment [5] was at most 20 µM in each case. In addition, in experiment [6], the “Tubulin (inhibition of tubulin polymerisation)” value is given as “+ (inhibited tubulin polymerisation by greater than 50% at 50 μM)”.
Take `CCCC(Nc1cncc(-c2ccc(O)c(OC)c2)n1)c1c(F)cccc1Cl` (stereo not drawn): the IC50 in experiment [1], in experiment [2], in experiment [3], in experiment [4] and in experiment [5] was at most 20 µM throughout. Further, the “Tubulin (inhibition of tubulin polymerisation)” value in experiment [6] was “+ (inhibited tubulin polymerisation by greater than 50% at 50 μM)”.
On to `CCCC(Nc1cncc(-c2ccc(O)c(OC)c2)n1)c1ccc(C(F)(F)F)cc1` (stereo not drawn), for which the IC50 in experiment [1], in experiment [2], in experiment [3], in experiment [4] and in experiment [5] was over 20 µM each time. Moreover, in experiment [6], the “Tubulin (inhibition of tubulin polymerisation)” value is given as “− (did not inhibit tubulin polymerisation by 50% at 50 μM)”.
For the compound `CCCC(Nc1cncc(-c2ccc(O)c(OC)c2)n1)c1cccnc1` (stereo not drawn), the IC50 in experiment [1], in experiment [2], in experiment [3], in experiment [4] and in experiment [5] was at most 20 µM in each case. For the same compound, the “Tubulin (inhibition of tubulin polymerisation)” value in experiment [6] is on record as “+ (inhibited tubulin polymerisation by greater than 50% at 50 μM)”.
For the compound `CCC[C@H](Nc1cncc(-c2ccc(O)c(OC)c2)n1)c1cccc(F)c1`, the IC50 in experiment [1], in experiment [2], in experiment [3], in experiment [4] and in experiment [5] was at most 20 µM throughout. Moreover, the “Tubulin (inhibition of tubulin polymerisation)” value in experiment [6] is “+ (inhibited tubulin polymerisation by greater than 50% at 50 μM)”.
In the case of `CCCC(Nc1cncc(-c2ccc(O)c(OC)c2)n1)c1cccc(C(F)(F)F)c1` (stereo not drawn), the IC50 in experiment [1], in experiment [2], in experiment [3], in experiment [4] and in experiment [5] was at most 20 µM each time. Further, the “Tubulin (inhibition of tubulin polymerisation)” value in experiment [6] is reported as “+ (inhibited tubulin polymerisation by greater than 50% at 50 μM)”.
`COc1cc(-c2cncc(NC(CCN3CCN(C)CC3)c3ccccc3)n2)ccc1O` (stereo not drawn): the IC50 in experiment [1], in experiment [2], in experiment [3], in experiment [4] and in experiment [5] was at most 20 µM throughout. The “Tubulin (inhibition of tubulin polymerisation)” value in experiment [6] was “+ (inhibited tubulin polymerisation by greater than 50% at 50 μM)”.
With `CCCC(Nc1cncc(-c2ccc(O)c(OC)c2)n1)c1cc(C)ccc1C` (stereo not drawn), the IC50 in experiment [1], in experiment [2], in experiment [3], in experiment [4] and in experiment [5] was at most 20 µM in each case. In addition, the “Tubulin (inhibition of tubulin polymerisation)” value in experiment [6] is “+ (inhibited tubulin polymerisation by greater than 50% at 50 μM)”.
With `CCCC(Nc1cncc(-c2ccc(O)c(OC)c2)n1)c1ccc(OC)nc1` (stereo not drawn), the IC50 in experiment [1] is at most 20 µM; in experiment [2], over 20 µM; in experiment [3], at most 20 µM; in experiment [4] it was at most 20 µM; in experiment [5], at most 20 µM. The “Tubulin (inhibition of tubulin polymerisation)” value in experiment [6] was “+ (inhibited tubulin polymerisation by greater than 50% at 50 μM)”.
Regarding `CCCC(Nc1cncc(-c2ccc(NC(C)=O)c(OC)c2)n1)c1ccc(F)cc1` (stereo not drawn), the IC50 in experiment [1], in experiment [2], in experiment [3], in experiment [4] and in experiment [5] was at most 20 µM each time. The “Tubulin (inhibition of tubulin polymerisation)” value in experiment [6] was “+ (inhibited tubulin polymerisation by greater than 50% at 50 μM)”.
In the case of `CCCC(Nc1cncc(-c2cc(C)c(O)c(C)c2)n1)c1ccc(F)cc1` (stereo not drawn), the IC50 in experiment [1], in experiment [2], in experiment [3], in experiment [4] and in experiment [5] was at most 20 µM in each case. In addition, in experiment [6], the “Tubulin (inhibition of tubulin polymerisation)” value is “+ (inhibited tubulin polymerisation by greater than 50% at 50 μM)”.
Take `CCCC(Nc1cncc(-c2cc(C)c(OCCN(CC)CC)c(C)c2)n1)c1ccc(F)cc1` (stereo not drawn): the IC50 in experiment [1], in experiment [2], in experiment [3], in experiment [4] and in experiment [5] was at most 20 µM throughout. In addition, in experiment [6], the “Tubulin (inhibition of tubulin polymerisation)” value is listed as “+ (inhibited tubulin polymerisation by greater than 50% at 50 μM)”.
Turning to `CCCC(Nc1cnc(C)c(-c2ccc(N)c(OC)c2)n1)c1ccccc1` (stereo not drawn), the IC50 in experiment [1], in experiment [2], in experiment [3], in experiment [4] and in experiment [5] was at most 20 µM each time. In addition, the “Tubulin (inhibition of tubulin polymerisation)” value in experiment [6] is listed as “+ (inhibited tubulin polymerisation by greater than 50% at 50 μM)”.
As for `CCCC(Nc1nc(-c2ccc(N)c(OC)c2)cnc1C)c1ccccc1` (stereo not drawn), the IC50 in experiment [1], in experiment [2], in experiment [3], in experiment [4] and in experiment [5] was at most 20 µM throughout. The “Tubulin (inhibition of tubulin polymerisation)” value in experiment [6] was “+ (inhibited tubulin polymerisation by greater than 50% at 50 μM)”.
